Laboratory results reported in BindingDB's records for doi:10.1021/acsmedchemlett.1c00445 (Janssen Research & Development, 2022).

Assay: Inhibition of human amyloid beta (1 to 42) in human SKNBE2 cells expressing wild-type amyloid precursor protein hAPP695 incubated for 18 hrs by sandwich ELISA

| Structure (SMILES) | IC50 [nM] |
| --- | --- |
| COc1cnc(C(=O)Nc2ccc(F)c([C@]3(C)Cn4nc(C#N)cc4C(N)=N3)c2)cn1 | 1.3 |
| C[C@@]1(c2cc(NC(=O)c3ccc(C#N)cn3)ccc2F)Cn2cc(C#N)nc2C(N)=N1 | 8.5 |
| C[C@@]1(c2cc(NC(=O)c3ccc(F)cn3)ccc2F)Cn2c(C#N)cnc2C(N)=N1 | 13 |
| COc1cnc(C(=O)Nc2ccc(F)c([C@]3(C)Cn4c(C#N)cnc4C(N)=N3)c2)cn1 | 6.3 |
| C[C@@]1(c2cc(NC(=O)c3ccc(C#N)cn3)ccc2F)Cn2nc(C#N)cc2C(N)=N1 | 1 |
| C[C@@]1(c2cc(NC(=O)c3ccc(OC(F)F)cn3)ccc2F)Cn2nc(C#N)cc2C(N)=N1 | 1 |

More lines, in order of falling IC50, values ahead:

| IC50 [nM] | Structure (SMILES) |
| --- | --- |
| 4.8 | Cc1nc(C(=O)Nc2ccc(F)c([C@]3(C)Cn4nc(C#N)cc4C(N)=N3)c2)co1 |
| 3.6 | C[C@@]1(c2cc(NC(=O)c3ccc(Cl)cn3)ccc2F)Cn2c(C#N)cnc2C(N)=N1 |
| 3.3 | C[C@@]1(c2cc(NC(=O)c3ccc(C#N)cn3)ccc2F)Cn2c(C#N)cnc2C(N)=N1 |
| 2.6 | C[C@@]1(c2cc(NC(=O)c3ccc(F)cn3)ccc2F)Cn2nc(C#N)cc2C(N)=N1 |
| 2.5 | C[C@@]1(c2cc(NC(=O)c3cnc(C(F)F)cn3)ccc2F)Cn2nc(C#N)cc2C(N)=N1 |
| 1.2 | C[C@@]1(c2cc(NC(=O)c3cnc(OCF)cn3)ccc2F)Cn2nc(C#N)cc2C(N)=N1 |
